Data: US5783449A (priority 1996, dated 1998)

How the values were obtained:
[1] = tested on: Microsomal Ethanol-Oxidation System (MEOS); details: human body; stated as well known; cited from earlier work
[2] = clinical; details: in vivo
Text: Even though ethanol elimination begins at very outset of consumption, formally the process breaks out from an apex into a pharmacokinetical curve--the break point of a neutralizing reaction against extreme absorption-distribution action.
AUCabs-distr is the absorption-distribution of ethanol and is equal to the AUC under the ascending part of the curve;
AUCpostabs +AUCdistr is a sum of the postabsorption and distribution of ethanol and is equal to the AUC between the ascending and descending part of the plotted curve. Because most pharmacokinetical cases have a triangle-like shape for the curve, it obviously has no value. However, if the value occurs (in a case with a trapezium-like shape for the curve) it disregards from calculation, because proportional representation for this internal rectangular-like composite AUC is the same as the Index-K value;
and AUCelim is the elimination of ethanol and is equal to the AUC under the descending part of the pharmacokinetical curve.
(§1) To verify the results, after ethanol consumption, BAC levels were repeatedly measured by INTOXIMETER EC/IR 3000, until two successive zero BAC measurements were obtained. […] A special electrochemical membrane measured oxidation by transdermal ethanol. The resulting current measured is expressed in micro Amperes (μA) and was automatically multiplied by 35 for TAS#37; by 40 for TAS#34, TAS#39, or by 45 for TAS#33 depending on type of construction for the device.
BAC tests were conducted on 83 volunteer individuals, 48 of whom were non-alcoholic males, 27 of whom were non-alcoholic females and 8 of whom were alcoholic males.
This dose was divided into three equal parts.
(§2) The BAC readings used in tables 1 and 2 were obtained using breath samples taken with the INTOXIMETER EC/IR 3000 made by Intoximeters, Inc. of St. Louis, Mo. This device has a rated accuracy of ±0.001 (1 mg/dl). The machine was reprogrammed to increase ethanol values by five percent from factory settings to more accurately reflect actual BAC.

[3] = in vivo
Text: as §1

[4] = in vivo; remark: listed apart in the source
Experimental: as §2

CCO [alcohol, ethanol]
fraction of consumed alcohol destroyed by MEOS [1]: approximately one-fifth | Time to peak ([2]; human, po): 66 ' | peak in the BAC ([2]; human, po): 68.2 (s.d.=8.98) | Cmax ([2]; human, po, peak in the BAC): 697 µg/mL | ratio of Index-K between alcoholic and non-alcoholic drinkers [2]: about twice | Index-K (range over methods) [3]: 1.9-1.97 | variation in the amplitude of the curves [3]: 2.7 fold | variation of the elimination time [3]: 1.9 fold | variation of the time to peak [3]: 1.7 fold | blood/breath ratio [4]: 0.994
